Columns and labels:
[1] = cited from earlier work
Swiss Albino male mice = assay: Elevated plus maze test in mice; assay type: in vivo; settings: Diazepam 1.5 mg/kg p.o.
Method: 1. Animals: Swiss Albino male mice 20-25 gm body weights were procured from Laboratory Animal Services Division of Central Drug Research Institute, Lucknow. All animals were kept in polyacrylic cage in environmentally controlled rooms (temperature 24-27° C. and humidity 60-65% with 12:12 light:dark cycle). Food was provided in the form of dry pellets and water ad libitum. Each animal was used only once in the behavioral tests and were habituated with the experimental room one day prior to the experiment All experiments involving animals complies with the ethical standards of animal handling and approved by Institutional Animal Ethics Committee.
Treatment of animals: Diazepam was diluted in distilled water, administered by […]. The extract was dissolved in 0.5% gum acacia suspension and administered by oral route.
Elevated plus maze test in mice: This test was used to evaluate the anti-anxiety activity. The test is based on the principal of conflict between exploration and fear of open/or closed arms. Apparatus consists of a raised stainless steel maze of four arms arranged in ‘+’ sign. Two of opposite arms are enclosed by raised walls whereas other arms are kept open. All the four arms consist of infrared beams at regular distance. The movement of animal across the arms is calculated by interruption of beams, which was analyzed by Maze Tracking Software (M/s. Columbus Instruments, USA). The trial was started by placing an animal on the central platform of the maze facing an open arm. Animals were given a period of 2 min to acclimatize with its surroundings. The time spent in each of the two types of arm was recorded during the next 5 min test period. The percentage open arm time were used as index of anxiety. The apparatus was cleaned thoroughly between trials with damp and dry towels.
Diazepam (1.5 mg/kg) and the Cassia tora leaves extract (100 mg/kg) was orally administered one hour prior to the experiment.

[2] = dose of 0.2 mg/mL; cited from earlier work
[3] = system: aflatoxin B-1-8,9-epoxide formation; settings: cited from earlier work

In the case of `CC1=CCC(O)(C(C)C)CC1` (stereo not drawn) [4-terpineol], the “IC50 against hydroxyl radicals” value [1] is listed as 87.5 mu g/mL.
In the case of `CN1C(=O)CN=C(c2ccccc2)c2cc(Cl)ccc21` [Diazepam], the “percentage of time spent in open arms in comparison to saline treated control mice” value (Swiss Albino male mice; extract 100 mg/kg p.o., P<0.01) is reported as “significant increase”, the “% time spent in open arms” value (Swiss Albino male mice; mice, extracts 100 mg/kg p.o.) is reported as 23.38% and the “Time spent in open arms (secs) out of 300 secs” value (Swiss Albino male mice; mice, extracts 100 mg/kg p.o., one hour prior, Mean ± SEM) is reported as 70.16 ± 4.09 s.
In the case of `Cc1c(C)c2c(c(C)c1O)CC[C@@](C)(CCC[C@H](C)CCC[C@H](C)CCCC(C)C)O2` [alpha-tocopherol], the “inhibition of peroxidation of linoleic acid” value [2] is given as 82%.
In the case of `O=C1c2ccc(O)cc2C(=O)c2ccc(O)cc21` [anthraflavine], the IC50 [3] is listed as 26.9 µM.
In the case of `O=C1c2cccc(O)c2C(=O)c2cccc(O)c21` [anthrarufm, anthrarufin], the IC50 [3] is listed as 11.5 µM.
In the case of `O=c1c(O)c(-c2ccc(O)c(O)c2)oc2cc(O)cc(O)c12` [quercetin], the “IC50 against hydroxyl radicals” value [1] is given as 8.15 mu g/mL.
For `O=C1c2ccccc2C(=O)c2c(O)ccc(O)c21` [quinizarin], the IC50 [3] is given as 4.12 µM.
